Results as given in US20250205258A1 (priority 2022, published 2025).

Columns and labels:
[1] = tested on: human lung adenocarcinoma cell line A549; test: CCK-8 in vitro antitumor activity (Effect Example 1); type: cell-based; details: A549, CCK-8, 72 hours
Protocol: (§1) The CCK-8 method described in “Methods for New Drug Pharmacological Research” (edited by Lv Qiujun, 2007: 242-243) was adopted.
(§2) The cell lines used were human lung adenocarcinoma cell line A549 and human colorectal cancer cell line HCT116, which were cryopreserved and passaged in the pharmacological laboratory of the Shanghai Institute of Pharmaceutical Industry. The culture medium was DMEM supplemented with 10% FBS and antibiotics.
(§3) Cells in logarithmic growth phase were seeded into 96-well plates at a density of 7×10^3 cells per well and incubated at 37° C. in a 5% CO2 environment for 24 hours to maintain a normal physiological pH.
(§4) After cell attachment, different concentrations of the test compounds, namely the bufalin derivatives 1a to 1l prepared in Example 1, as well as the compound doxorubicin, were added to triplicate wells, with 0.1% DMSO added as a control.
(§5) After 72 hours, 10 μL of CCK-8 cell counting kit was added to each well, and the plates were incubated again at 37° C. for 0.5 to 1 hour. The absorbance (OD) was read at 450 nm on a full-featured microplate reader (Biotek Synergy H2), and the concentration causing 50% cell growth inhibition (IC50) was calculated by simulation using GraphPad Prism software.

[2] = tested on: human colorectal cancer cell line HCT116; test: as above; type: cell-based; details: HCT-116, HCT116, CCK-8, 72 hours
Protocol: as §1, §2, §3, §4, §5

95D cells = test: Cell scratch test, migration of 95D cells; type: cell-based, human; details: different concentrations, FIG. 1 and FIG. 2
Protocol: Test Method: Draw three parallel lines with a spacing of approximately 0.5 cm on the outer bottom surface of a 6-well plate. After evenly seeding the tumor cells 95D onto the plate (5×10^5 cells/well), create a cell scratch using a pipette. Wash the cells three times with phosphate-buffered saline (PBS) to remove the scratched-off cells. Then, add medium that has been pre-mixed with different concentrations of compound 1a or 1b.
Place the plate in a 37° C., 5% CO2 incubator for culturing. Sample the cells at 0, 12, 24, 36, and 48 hours, and take photographs under a microscope.
Using ImageJ software, measure the area and height of the scratch site. The average scratch width can be obtained by dividing the area by the height. Subtract the scratch width at the end of the experiment from the scratch width at the 0-hour point to obtain the distance of cell migration. Then, use this distance value to calculate the cell migration index (MI) according to the following formula:
Cell Migration Index(MI)=(Initial Blank Width−Blank Width at a Specific Time Point)/Initial Blank Width.

[3] = tested on: Human lung adenocarcinoma cells A549; test: CCK-8 in vitro antitumor activity (Table 5); type: cell-based; details: A549, CCK-8, 72 hours
Description: (§6) Test Method: The CCK-8 method from “Methods for New Drug Pharmacological Research” edited by Lv Qiujun (2007: 242-243) was adopted.
(§7) Cell lines used: Human lung adenocarcinoma cells A549, human high-metastasis lung cancer cells 95D, and human colon cancer cells HCT116, which were cryopreserved and passaged by the Pharmacological Laboratory of the Shanghai Institute of Pharmaceutical Industry, were selected. The culture medium used was DMEM+10% FBS+antibiotics.
(§8) Cells in the logarithmic growth phase were taken and seeded into 96-well plates at a density of 7×10^3 cells per well. They were then incubated at 37° C. in a 5% CO2 environment for 24 hours to maintain a normal physiological pH.
(§9) After cell adhesion, different concentrations of the test compounds, namely the bufalin derivatives IVa to IVc prepared in Example 5, as well as the comparative compound doxorubicin, were added to three replicate wells, with 0.1% DMSO added to separate wells as a control.
(§10) After 72 hours, 10 μL of the CCK-8 cell counting kit was added to each well, and the plates were incubated again at 37° C. for 0.5 to 1 hour. The absorbance (OD) was read at 450 nm on a full-function microplate reader, Biotek Synergy H2, and the concentration causing 50% inhibition of cell growth (IC50) was calculated through simulation using GraphPad Prism software.

[4] = tested on: human colon cancer cells HCT116; test: CCK-8 in vitro antitumor activity (Table 5); type: cell-based; details: for activity against HCT116 compared with doxorubicin: HCT116, versus doxorubicin; for IC50: Homo sapiens, HCT-116, HCT116, CCK-8, 72 hours
Description: as §6, §7, §8, §9, §10

[5] = tested on: human high-metastasis lung cancer cells 95D; test: CCK-8 in vitro antitumor activity (Table 5); type: cell-based; details: for IC50: Homo sapiens, CCK-8, 72 hours
Description: as §6, §7, §8, §9, §10

[6] = tested on: HCT116 colorectal cancer cells xenografts; test: In vivo antitumor activity, HCT116 xenografts (Efficacy Example 3); set-up: species or system BALB/C nude mice; details: 1c 1 mg/kg iv × 7, qod, 5-Fluorouracil 15 mg/kg ip × 7; for Animal weight (After tumor removal): nude mice, HCT116 xenograft; for RTV (d18): relative tumor volume; for TGI (%): tumor volume inhibition
Description: (§11) Experimental Method: The test animals were male SPF-grade BALB/C nude mice weighing 18 to 20 grams.
(§12) Experimental Procedure: Well-grown HCT116 colorectal cancer tumor masses were cut into uniform small pieces of approximately 3 mm in size under aseptic conditions. A cannula needle was used to inoculate one piece subcutaneously into the right axilla of each test mouse. Nine days after inoculation, the average tumor volume was approximately 113 to 119 mm^3. The animals were then regrouped based on tumor size, eliminating those with excessively large or small tumors, to ensure that the average tumor volume was consistent among the experimental groups. Administration by intraperitoneal injection was then initiated according to the following protocol, with a dosing volume of 0.2 mL per 20 grams of body weight:
(§13) From the 9th day of inoculation, the maximum tumor length (a, in mm) and the perpendicular maximum tumor width (b, in mm) were measured twice a week using a digital electronic caliper.
(§14) The tumor volume (TV) was calculated using the formula: TV=ab^2/2.
(§15) The relative tumor volume (RTV) was calculated using the formula: RTV=Vt/Vo, where Vo is the tumor volume measured at the time of cage distribution (i.e., day 1) and Vt is the tumor volume at each subsequent measurement.
(§16) On the 27th day after inoculation (day 19), the animals were euthanized, weighed, dissected to remove the tumor masses, and the tumor weights were measured.
This efficacy example employs the same test animals and experimental methods as Efficacy Example 2, with the only difference being that the average tumor volume was approximately 130 to 140 mm^3 on the 13th day after inoculation of HCT116 colorectal cancer tumor masses into the test mice. Subsequently, the animals were regrouped based on tumor size and administered the drug according to the same protocol as in Efficacy Example 2. The animals were euthanized on the 30th day after inoculation (i.e., day 18), and their body weights and tumor weights were measured after dissection.

[7] = tested on: HCT116 colorectal cancer cells xenografts; test: In vivo antitumor activity, HCT116 xenografts (Efficacy Example 2); set-up: species or system BALB/C nude mice; details: 1a 10 mg/kg ip × 7, qod, 5-Fluorouracil 15 mg/kg ip × 7
Description: as §11, §12, §13, §14, §15, §16

hERG potassium channel = hERG potassium channel (Homo sapiens, UniProt Q12809); details: test concentration 30 μM
Chain of hERG potassium channel (Q12809 whole entry): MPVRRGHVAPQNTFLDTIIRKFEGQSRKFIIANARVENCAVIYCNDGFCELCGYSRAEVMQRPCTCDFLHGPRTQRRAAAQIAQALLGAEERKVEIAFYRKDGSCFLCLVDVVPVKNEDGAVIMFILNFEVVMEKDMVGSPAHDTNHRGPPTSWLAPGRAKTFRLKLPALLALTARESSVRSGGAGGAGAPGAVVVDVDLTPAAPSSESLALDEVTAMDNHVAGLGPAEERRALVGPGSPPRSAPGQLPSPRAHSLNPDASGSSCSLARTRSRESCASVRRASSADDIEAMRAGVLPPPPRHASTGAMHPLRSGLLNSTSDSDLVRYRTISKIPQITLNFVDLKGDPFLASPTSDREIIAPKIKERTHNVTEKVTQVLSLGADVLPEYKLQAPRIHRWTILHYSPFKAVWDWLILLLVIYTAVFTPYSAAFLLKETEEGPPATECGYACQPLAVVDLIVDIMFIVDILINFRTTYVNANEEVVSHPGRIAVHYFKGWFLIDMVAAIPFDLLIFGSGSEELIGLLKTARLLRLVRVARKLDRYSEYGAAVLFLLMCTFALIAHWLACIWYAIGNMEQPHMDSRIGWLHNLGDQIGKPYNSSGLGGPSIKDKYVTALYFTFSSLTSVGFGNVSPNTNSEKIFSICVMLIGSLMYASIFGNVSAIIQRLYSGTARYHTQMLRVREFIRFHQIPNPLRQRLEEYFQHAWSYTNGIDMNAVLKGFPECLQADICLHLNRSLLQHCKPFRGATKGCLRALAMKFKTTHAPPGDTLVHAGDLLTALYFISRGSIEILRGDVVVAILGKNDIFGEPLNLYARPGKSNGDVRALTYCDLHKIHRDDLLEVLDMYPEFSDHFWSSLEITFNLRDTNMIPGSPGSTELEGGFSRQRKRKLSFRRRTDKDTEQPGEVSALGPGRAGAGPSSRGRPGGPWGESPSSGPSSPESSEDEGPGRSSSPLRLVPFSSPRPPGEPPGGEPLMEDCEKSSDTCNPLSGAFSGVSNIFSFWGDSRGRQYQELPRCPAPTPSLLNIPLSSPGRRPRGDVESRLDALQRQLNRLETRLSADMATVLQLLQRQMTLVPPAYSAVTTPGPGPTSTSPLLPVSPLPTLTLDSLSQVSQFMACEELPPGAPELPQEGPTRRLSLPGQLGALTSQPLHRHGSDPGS
Protocol: Experimental Method: CHO-hERG cells were cultured in a 175 cm^2 flask until the cell density reached 60 to 80%. The culture medium was then removed, and the cells were washed once with 7 mL of Phosphate Buffered Saline (PBS). Subsequently, 3 mL of gentle cell detachment solution (Detachin) was added for digestion. Once the digestion was complete, 7 mL of culture medium was added to neutralize the solution. The cells were then centrifuged, and the supernatant was aspirated. To ensure a cell density of 2 to 5×10^6/mL, 5 mL of culture medium was added to resuspend the cells.
The entire process of forming single-cell high-impedance seals and whole-cell recording mode was automatically completed by the high-throughput, fully automated patch clamp system, namely the Qpatch instrument. After obtaining the whole-cell recording mode, the cells were clamped at −80 mV. Prior to applying a 5-second+40 mV depolarization stimulus, a 50-millisecond −50 mV prepulse was given, followed by a repolarization to −50 mV for 5 seconds, and then returning to −80 mV This voltage stimulus was applied every 15 seconds. After recording for 2 minutes, the extracellular solution was recorded for 5 minutes, and then the drug administration process began.
These stock solutions were then diluted 500-fold with extracellular solution to obtain the final concentrations required for testing.

CC(C)OP(=O)(CNC1CCN(C(=O)O[C@H]2CC[C@@]3(C)[C@H](CC[C@@H]4[C@@H]3CC[C@]3(C)[C@@H](c5ccc(=O)oc5)CC[C@]43O)C2)CC1F)OC(C)C (some centres unmarked) [Compound 1l]
IC50 [1]: 0.283 µM | IC50 [2]: 0.12 µM

C[C@]12CC[C@H](OC(=O)NC3CCN(CP(=O)(OC4CCCC4)OC4CCCC4)CC3)C[C@H]1CC[C@@H]1[C@@H]2CC[C@]2(C)[C@@H](c3ccc(=O)oc3)CC[C@]12O [Compound 1g]
IC50 [1]: 0.422 µM | IC50 [2]: 0.289 µM

CCOP(=O)(CCN1CCC(NC(=O)O[C@H]2CC[C@@]3(C)[C@H](CC[C@@H]4[C@@H]3CC[C@]3(C)[C@@H](c5ccc(=O)oc5)CC[C@]43O)C2)CC1)OCC [Compound 1b]
IC50 [1]: < 0.004 µM | IC50 [2]: < 0.004 µM | inhibitory effect on the migration of 95D cells (95D cells): excellent anti-tumor migration effects

CCOP(=O)(CCCN1CCN(C(=O)O[C@H]2CC[C@@]3(C)C(CCC4C3CC[C@]3(C)[C@@H](c5ccc(=O)oc5)CC[C@]43O)C2)CC1)OCC (some centres unmarked) [IVc]
IC50 [3]: 0.011 µM | activity against HCT116 compared with doxorubicin [4]: comparable activity against HCT116 to doxorubicin | IC50 [4]: 0.027 µM | IC50 [5]: 0.072 µM | activity against 95D compared with doxorubicin ([5]; versus doxorubicin): superior activity against 95D compared to doxorubicin

C[C@]12CC[C@H](OC(=O)NC3CCN(CP(=O)(OC4CCC4)OC4CCC4)CC3)C[C@H]1CC[C@@H]1[C@@H]2CC[C@]2(C)[C@@H](c3ccc(=O)oc3)CC[C@]12O [Compound 1f]
IC50 [1]: 0.026 µM | IC50 [2]: 0.067 µM

O=c1[nH]cc(F)c(=O)[nH]1 [5-Fluorouracil, reference compound]
Animal weight (After tumor removal) [6]: 21.84 ± 1.52 g | RTV (d18) [6]: 7.35 ± 1.55 | TGI (%) [6]: 59.37% | Animal weight (After tumor removal) ([7]; nude mice, HCT116 xenograft): 19.20 ± 1.84 g | RTV (d18) ([7]; relative tumor volume, d18): 5.52 ± 0.81 | TGI (%) ([7]; tumor volume inhibition): 56.16%

C[C@]12CC[C@H](OC(=O)NC3CCN(CP(=O)(OC4CCCCC4)OC4CCCCC4)CC3)C[C@H]1CC[C@@H]1[C@@H]2CC[C@]2(C)[C@@H](c3ccc(=O)oc3)CC[C@]12O [Compound 1h]
IC50 [1]: 0.023 µM | IC50 [2]: 0.336 µM

CCOP(=O)(CN1CCN(C(=O)O[C@H]2CC[C@@]3(C)C(CCC4C3CC[C@]3(C)[C@@H](c5ccc(=O)oc5)CC[C@]43O)C2)CC1)OCC (some centres unmarked) [IVb]
IC50 [3]: 0.018 µM | activity against HCT116 compared with doxorubicin [4]: comparable activity against HCT116 to doxorubicin | IC50 [4]: 0.04 µM | IC50 [5]: 0.262 µM

CC(C)OP(=O)(CNC1CCN(C(=O)O[C@H]2CC[C@@]3(C)[C@H](CC[C@@H]4[C@@H]3CC[C@]3(C)[C@@H](c5ccc(=O)oc5)CC[C@]43O)C2)CC1)OC(C)C [Compound 1j]
IC50 [1]: 0.216 µM | IC50 [2]: 0.02 µM

CC(C)OP(=O)(CN1CCN(C(=O)O[C@H]2CC[C@@]3(C)C(CCC4C3CC[C@]3(C)[C@@H](c5ccc(=O)oc5)CC[C@]43O)C2)CC1)OC(C)C (some centres unmarked) [IVa]
IC50 [3]: 0.019 µM | IC50 [4]: 0.117 µM | IC50 [5]: 0.574 µM

CO[C@H]1CN(C(=O)O[C@H]2CC[C@@]3(C)[C@H](CC[C@@H]4[C@@H]3CC[C@]3(C)[C@@H](c5ccc(=O)oc5)CC[C@]43O)C2)CC[C@H]1NCP(=O)(OC(C)C)OC(C)C [Compound 1k]
IC50 [1]: 0.239 µM | IC50 [2]: 0.143 µM

CC(C)OP(=O)(CN1CC[C@@H](NC(=O)O[C@H]2CC[C@@]3(C)[C@H](CC[C@@H]4[C@@H]3CC[C@]3(C)[C@@H](c5ccc(=O)oc5)CC[C@]43O)C2)[C@H](O)C1)OC(C)C [Compound 1i]
IC50 [1]: 0.015 µM | IC50 [2]: 0.008 µM

COc1cccc2c1C(=O)c1c(O)c3c(c(O)c1C2=O)C[C@@](O)(C(=O)CO)C[C@@H]3O[C@H]1C[C@H](N)[C@H](O)[C@H](C)O1 [Doxorubicin, reference compound]
IC50 [3]: 0.008 µM | IC50 [4]: 0.019 µM | IC50 [5]: 0.115 µM | IC50 [1]: 0.92 µM | IC50 [2]: 0.054 µM

CCOP(=O)(CCCN1CCC(NC(=O)O[C@H]2CC[C@@]3(C)[C@H](CC[C@@H]4[C@@H]3CC[C@]3(C)[C@@H](c5ccc(=O)oc5)CC[C@]43O)C2)CC1)OCC [Compound 1c]
Inhibition rate (hERG potassium channel) (hERG potassium channel): 53.8±4.13% | IC50 [1]: < 0.004 µM | IC50 [2]: < 0.004 µM | Animal weight (After tumor removal) [6]: 21.02 ± 3.08 g | RTV (d18) [6]: 6.56 ± 1.79 | TGI (%) [6]: 63.69%

CCOP(=O)(CN1CCC(NC(=O)O[C@H]2CC[C@@]3(C)[C@H](CC[C@@H]4[C@@H]3CC[C@]3(C)[C@@H](c5ccc(=O)oc5)CC[C@]43O)C2)CC1)OCC [Compound 1d]
IC50 [1]: 0.037 µM | IC50 [2]: 0.024 µM

CCCOP(=O)(CN1CCC(NC(=O)O[C@H]2CC[C@@]3(C)[C@H](CC[C@@H]4[C@@H]3CC[C@]3(C)[C@@H](c5ccc(=O)oc5)CC[C@]43O)C2)CC1)OCCC [Compound 1e]
IC50 [1]: 0.058 µM | IC50 [2]: 0.022 µM
